Reference: US8044198B2, “Sirtuin modulating compounds” (Sirtris Pharmaceuticals, Inc., priority 2005, dated 2011)

Experiments:
SIRT1 [1] = biological target: T1, SIRT1 (Homo sapiens, UniProt Q96EB6); test: SIRT1 fluorescence polarization (FP) deacetylation assay with p53-based peptide substrates; type: biochemical; conditions: for EC50: SIRT1 activation, read-out: ED50 FP ASSAY; for IC50: Sirt1 Inhibitors
T1 sequence (Q96EB6 1-747): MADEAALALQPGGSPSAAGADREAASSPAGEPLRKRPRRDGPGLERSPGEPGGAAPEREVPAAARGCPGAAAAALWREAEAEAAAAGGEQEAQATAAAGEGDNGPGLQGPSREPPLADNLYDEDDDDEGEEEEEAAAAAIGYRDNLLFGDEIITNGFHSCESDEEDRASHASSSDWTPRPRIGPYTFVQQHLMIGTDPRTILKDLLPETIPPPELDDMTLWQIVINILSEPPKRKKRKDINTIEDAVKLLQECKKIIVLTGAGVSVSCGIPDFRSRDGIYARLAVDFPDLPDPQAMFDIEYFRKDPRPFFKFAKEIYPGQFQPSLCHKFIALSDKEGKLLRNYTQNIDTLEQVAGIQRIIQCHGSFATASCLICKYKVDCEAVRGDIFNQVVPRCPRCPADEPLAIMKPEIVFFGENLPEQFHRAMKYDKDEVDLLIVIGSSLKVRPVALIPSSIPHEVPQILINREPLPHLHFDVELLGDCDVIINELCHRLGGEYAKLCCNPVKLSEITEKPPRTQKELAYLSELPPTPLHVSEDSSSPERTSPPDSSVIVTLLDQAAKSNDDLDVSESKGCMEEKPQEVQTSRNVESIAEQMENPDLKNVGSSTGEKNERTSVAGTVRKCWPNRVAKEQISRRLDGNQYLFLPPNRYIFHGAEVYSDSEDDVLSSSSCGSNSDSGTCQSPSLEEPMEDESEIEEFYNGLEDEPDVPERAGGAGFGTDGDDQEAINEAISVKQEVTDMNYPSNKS
Protocol: A fluorescence polarization or mass spectrometry based assay was used to identify modulators of SIRT1 activity. The same assay may be used to identify modulators of any sirtuin protein. The fluorescence polarization assays utilizes one of two different peptides based on a fragment of p53, a known sirtuin deacetylation target. Compounds 1-18 were tested using a substrate containing peptide 1 having 14 amino acid residues as follows: […](Ac)NleSTEG (SEQ ID NO: 1) wherein K(Ac) is an acetylated lysine residue and Nle is a norleucine. The peptide is labeled with the fluorophore MR121 (excitation 635 nm/emission 680 nm) at the C-terminus and biotin at the N-terminus. The sequence of the peptide substrate is based on p53 with several modifications. In particular, all arginine and leucine residues other than the acetylated lysine have replaced with serine so that the peptide is not susceptible to trypsin cleavage in the absence of deacetylation. In addition, the methionine residue naturally present in the sequence has been replaced with the norleucine because the methionine may be susceptible to oxidation during synthesis and purification. […] This peptide is labeled with the fluorophore MR121 (excitation 635 nm/emission 680 nm) at the C-termini and biotin at the N-termini. The sequence of the peptide substrates are based on p53 with several modifications. In particular, all arginine and leucine residues other than the acetylated lysine residues have replaced with serine so that the peptides are not susceptible to trypsin cleavage in the absence of deacetylation. In addition, the methionine residues naturally present in the sequences have been replaced with the norleucine because the methionine may be susceptible to oxidation during synthesis and purification. […] The peptide is labeled with the fluorophore 5TMR (excitation 540 nm/emission 580 nm) at the C-terminus. The sequence of the peptide substrate is also based on p53 with several modifications. In addition, the methionine residue naturally present in the sequence was replaced with the norleucine because the methionine may be susceptible to oxidation during synthesis and purification.
The peptide substrates were exposed to a sirtuin protein in the presence of NAD^+ to allow deacetylation of the substrate and render it sensitive to cleavage by trypsin. Trypsin was then added and the reaction was carried to completion (i.e., the deacetylated substrate is cleaved) releasing the MR121 or 5TMR fragment. Streptavidin is then added to the reaction where it can bind both the uncleaved substrate (i.e., any remaining acetylated substrate) and the non-fluorescent portion of the cleaved peptide substrate (i.e., the biotin containing fragment). The fluorescence polarization signal observed for the full length peptide substrates bound to streptavidin was higher than the fluorescence polarization signal observed for the released MR121 or 5TMR C-terminal fragment. In this way, the fluorescence polarization obtained is inversely proportional to the level of deacetylation (e.g., the signal is inversely proportional to the activity of the sirtuin protein). Results were read on a microplate fluorescence polarization reader (Molecular Devices Spectramax MD) with appropriate excitation and emission filters.
The fluorescence polarization assays using peptide 1 was conducted as follows: 0.5 μM peptide substrate and 150 μM βNAD^+ is incubated with 0.1 μg/mL of SIRT1 for 60 minutes at 37° C. in a reaction buffer (25 mM Tris-acetate pH8, 137 mM Na—Ac, 2.7 mM K—Ac, 1 mM Mg—Ac, 0.05% Tween-20, 0.1% Pluronic F127, 10 mM CaCl2, 5 mM DTT, 0.025% BSA, 0.15 mM Nicotinamide). Test compounds 1-18 were solubilized in DMSO and added to the reaction at 11 concentrations ranging from 0.7 μM to 100 μM. […]

SIRT1 [2] = biological target: T1, SIRT1; test: SIRT1 mass spectrometry (MS) based deacetylation assay; type: biochemical; conditions: for EC50: SIRT1 activation, mass spectrometry assay, read-out: ED50 MS ASSAY; for FOLD ACT. MS: fold activation of SIRT1 as determined by MS
NCI-H358 cells = test: Cellular ATP Assay (ATPLite 1Step normalized to AlamarBlue viability); type: cell-based; conditions: Homo sapiens; for EC50: compounds that raised intracellular ATP levels, read-out: ED50 ATP ASSAY
Protocol: Cellular ATP levels are an indirect measurement of cellular metabolic rates and, by extension, mitochondrial function. […] The ATP assay is combined with a cellular viability assay so that cellular ATP levels can be normalized to viable cells. Cellular ATP levels were measured using the ATPLite 1Step Kit (PerkinElmer) and cellular viability was measured using the cell permeable dye, AlamarBlue™.
The Cellular ATP Assay is a multiplexed assay that measures both ATP levels and viability of a given cell sample. This assay is run in a 96-well Assay Plate and data are reported as the [ATP]/viability for each well in the Assay Plate.
The ATPLite 1 Step™ Kit is a single-step luminescent cell-based assay for detection of ATP. The kit contains lyophilized substrate mixture, comprised of D-luciferin and the firefly (Photinus pyralis) enzyme luciferase. Additionally, the kit contains a detergent-based reconstitution buffer that induces the lysis of cellular membranes. The luciferase in the assay mixture catalyzes a reaction between the free cellular ATP and D-luciferin to produce bioluminescence according to the schematic reaction outlined below. The amount of light produced is proportional to the cellular ATP concentration.
The AlamarBlue™ Assay is a single-step assay that utilizes a soluble, non-toxic, cell permeable dye that is added to cell growth media. This dye undergoes electron reduction in viable cells but not dead cells. The reduced dye product gives a fluorescent signal which can be monitored with a fluorescence plate reader (excitation 545 nm and emission 575 nm). The amount of fluorescence generated in a given well is proportional to the number of viable cells. The viability signal generated by this assay is used to normalize the ATP signal from the ATPLite 1Step™ assay results.
The material was dissolved in 100% vehicle (DMSO) to yield a final concentration of 10 mM (stock solution). The stock solution was serially diluted with 100% DMSO as described in SOP 7.10.
In this assay NCI-H358 cells (obtained from the American Tissue Culture Collection, ATCC) were seeded in 96 well microplates (10^4 cells/well). The NCI-H358 Growth Culture Media consists of RPMI 1640 Media supplemented with 10% FBS, […] streptomycin, and 100 units/mL penicillin. […] After 48 hours of compound treatment under cell growth conditions, plates were removed from incubator, and 15 μl of AlamarBlue™ dye was added to each well. Cell microplates were incubated with dye for 2 hours under growth conditions, and fluorescence was subsequently measured using a plate reader. Media containing AlamarBlue™ was removed, and plates were washed in 100 μl of PBS per well. This wash was removed, and 200 μl of 1×ATPLite 1Step reagent was added to each well. Luminescence was then measured using a plate reader. The ATP signal for each well, measured by the luminescence scan, was normalized to its corresponding cell viability value, measured by the fluorescence scan, to generate the average ATP level per viable cell unit (ATP/vCell). The ATP/vCell for each treatment was then normalized to the average vehicle ATP/vCell for its respective cell microplate, yielding the normalized ATP/vCell (norm. ATP/vCell). Finally, the norm. ATP/vCell for each unique treatment was averaged across plate replicates, generating the average norm. ATP/vCell.
Each of these ATP levels was normalized to the cell viability in the corresponding treatment well, generating the ATP/vCell value. Each ATP/vCell value was subsequently normalized to its average Vehicle ATP/vCell values for its respective cell microplate.
Data are represented as the normalized ATP/vCell (arbitrary units). […] These values represent an average of three plate replicates.
A number of compounds were screened for their affect on ATP levels in the assay as described in Example 5. […] NA means that the compound was not tested using the indicated assay.

| EC50 (SIRT1 [1]) [µM] | EC50 (SIRT1 [2]) [µM] | Structure (SMILES) | other results |
| --- | --- | --- | --- |
| > 150 | > 150 | Cc1ccc(C)n1-c1cccc(C(=O)Nc2ccc(-c3nc4ncccc4o3)cc2)c1 [Compound 19] |  |
| > 150 | > 150 | O=C(Nc1ccc(-c2nc3ncccc3o2)cc1)c1ccc(N2CCOCC2)cc1 [Compound 20] |  |
| > 150 | > 150 | O=C(Nc1ccc(-c2nc3ncccc3o2)cc1)c1ccc(N2CCCCC2)cc1 [Compound 21] |  |
| > 150 | > 150 | COc1ccc(C(=O)Nc2ccc(-c3nc4ncccc4o3)cc2)cc1C(F)(F)F [Compound 22] |  |
|  |  | CN(C)c1cccc(C(=O)Nc2ccc(-c3nc4ncccc4o3)cc2)c1 [Compound 23] | IC50 (SIRT1 [1]): > 150 µM |
| > 150 | > 150 | CN(C)c1ccc(C(=O)Nc2ccc(-c3nc4ncccc4o3)cc2)cc1 [Compound 24] |  |
|  |  | N#Cc1cccc(C(=O)Nc2ccc(-c3nc4ncccc4o3)cc2)c1 [Compound 25] | IC50 (SIRT1 [1]): 51 to 100 µM |
|  |  | N#Cc1ccc(C(=O)Nc2ccc(-c3nc4ncccc4o3)cc2)cc1 [Compound 26] | IC50 (SIRT1 [1]): 51 to 100 µM |
| > 150 | > 150 | COc1cccc(OC)c1C(=O)Nc1ccc(-c2nc3ncccc3o2)cc1 [Compound 27] |  |
|  |  | O=C(Nc1ccc(-c2nc3ncccc3o2)cc1)c1ccccc1N1CCOCC1 [Compound 28] | IC50 (SIRT1 [1]): > 150 µM |
| > 150 | > 150 | O=C(Nc1ccc(-c2nc3ncccc3o2)cc1)c1ccc(N2CCCC2)cc1 [Compound 29] |  |
|  |  | COc1ccc(C(=O)Nc2ccc(-c3nc4ncccc4o3)cc2)cc1Cl [Compound 30] | IC50 (SIRT1 [1]): > 150 µM |
| > 150 | > 150 | COc1cccc(C(=O)Nc2ccc(-c3nc4ncccc4o3)cc2)c1C [Compound 31] |  |
| > 150 | > 150 | O=C(Nc1ccc(-c2nc3ncccc3o2)cc1)c1cccc(OC(F)(F)F)c1 [Compound 32] |  |
| > 150 | > 150 | COc1ccc(C(=O)Nc2ccc(-c3nc4ncccc4o3)cc2)cc1OC [Compound 33] |  |
| > 150 | > 150 | COc1ccc(C(=O)Nc2ccc(-c3nc4ncccc4o3)cc2)c(OC)c1OC [Compound 34] |  |
| > 150 | > 150 | COc1ccc(C(=O)Nc2ccc(-c3nc4ncccc4o3)cc2)cc1 [Compound 35] |  |
| > 150 | > 150 | COc1ccc(C(=O)Nc2ccc(-c3nc4ncccc4o3)cc2)c(OC)c1 [Compound 36] |  |
| > 150 | > 150 | O=C(Nc1ccc(-c2nc3ncccc3o2)cc1)c1ccccc1 [Compound 37] |  |
|  | 5 to 50 | COc1cc(NC(=O)c2cccc(-c3nc4ncccc4o3)c2)cc(OC)c1OC [Compound 102, 3-(oxazolo[4,5-b]pyridin-2-yl)-N-(3,4,5-trimethoxyphenyl)benzamide] | FOLD ACT. MS (SIRT1 [2]): A (A (Fold activation >250%)); EC50 (NCI-H358 cells): < 50 µM |
|  | < 5 | c1cc(Nc2nc3ccccc3s2)nc(-c2nc3ncccc3o2)c1 [Compound 104] | FOLD ACT. MS (SIRT1 [2]): B (B (Fold Activation <250%)); EC50 (NCI-H358 cells): < 50 µM |
|  | < 5 | c1cc(Nc2nc3ccccc3o2)nc(-c2nc3ncccc3o2)c1 [Compound 105] | FOLD ACT. MS (SIRT1 [2]): B (B (Fold Activation <250%)); EC50 (NCI-H358 cells): < 50 µM |
|  | < 5 | COc1cc(C(=O)Nc2ccccc2-c2nc3ncccc3o2)cc(OC)c1OC [Compound 106] | FOLD ACT. MS (SIRT1 [2]): B (B (Fold Activation <250%)); EC50 (NCI-H358 cells): < 50 µM |
|  | 5 to 50 | COc1cc(C(=O)Nc2cccc(-c3nc4ccncc4s3)c2)cc(OC)c1OC [Compound 115] | FOLD ACT. MS (SIRT1 [2]): A (A (Fold activation >250%)); EC50 (NCI-H358 cells): > 150 µM |
|  | 5 to 50 | COc1ccc(C(=O)Nc2cccc(-c3nc4cc(C)ccc4[nH]3)c2)cc1OC [Compound 117] | FOLD ACT. MS (SIRT1 [2]): A (A (Fold activation >250%)); IC50 (NCI-H358 cells; compounds that lowered intracellular ATP levels): 51 to 100 µM |
|  | < 5 | COc1cc(C(=O)Nc2cc(CO)cc(-c3nc4ccncc4s3)c2)cc(OC)c1OC [Compound 135] | FOLD ACT. MS (SIRT1 [2]): B (B (Fold Activation <250%)); EC50 (NCI-H358 cells): < 50 µM |
|  |  | Cc1cc(SCc2sc(-c3ccc(C(F)(F)F)cc3)nc2C)ccc1OCC(=O)O [Compound 291] | IC50 (SIRT1 [1]): 51 to 100 µM |
